Source: patent US5132323A, “1,2-diaminocyclohexane-platinum complexes with antitumor activity” (Board of Regents, The University of Texas System, priority 1990, dated 1992)

How the values were obtained:
[1] = tested on: B16 melanoma; test: In vivo antitumor efficacy, B16 melanoma; parameters: species or system BDF1 mice; settings: for % T/C (mean survival time treated/control x 100): mice inoculated with B16 cells (Table 6); for % T/C: days 1, 5, 9
Experimental: (§1) BDF1 mice were inoculated intraperitoneally with 10^5 L121O cells, 0.5 ml of 10% tumor brei or 10^6 M5076 cells using 5 animals in each group. Drug was administered […] on days 1, 5 and 9, except that the group infected with M5076 cells was also injected on day 13. % T/C represents mean survival time treated/mean survival time of the control times 100.
(§2) ^d % T/C = (Mean Survival Time treated/Mean Survival Time control)
(§3) ^e LTS animals alive 60 days after inoculation of L1210/0 and B16 and […]

[2] = In vivo renal and hematological toxicity of DACH-Pt(II) compounds; parameters: species or system CD1 albino mice; WBC d.5: unit not given here; settings: single i.p. LD50 dose; for Body Weight d.5 (% of day 0) / WBC d.5: day 5; for WBC d.5: mean ± S.D.
Experimental: CD1 albino mice were administered a single intraperitoneal injection of the LD50 dose of each compound using 5 mice in each group. Five days later each mouse was bled under anesthesia from the axillary vessel. Blood urea nitrogen (BUN) and leucopenia were assessed for each sample.
^a CD1 Albino mice were administered a single i.p. injection of
the LD50 dose of each compound (5 mice/cmpd) and bled under
anesthesia from the axillary vessel 5 days later for blood urea nitrogen
(BUN) measurement and assessment of leucopenia. Results as presented as […]

[3] = tested on: M5076; test: In vivo antitumor efficacy, M5076; parameters: species or system BDF1 mice; settings: for long term survivor: M5076 inoculation (Table 6); for % T/C (treated/control mean survival time): mice inoculated with M5076 cells (Table 6); for % T/C: days 1, 5, 9, 13; for LTS: alive 90 days after inoculation
Experimental: as §1
^c BDF1 mice were inoculated i.p. with 10^6 M5076 cells. Mic
received 4 i.p. drug injections on days 1, 5, 9 and 13.
as §2
^e LTS animals alive 60 days after inoculation of L1210/0 and B16 and
90 days after inoculation B5076.

[4] = tested on: wild-type L1210 leukemic cells; test: In vitro cytotoxicity, growth inhibition of wild-type L1210 leukemic cells; assay type: cell-based, murine; settings: 72 hours incubation
Experimental: Wild-type L1210 leukemic cells were grown as a suspension culture in McCoy's 5A medium supplemented with 10% horse serum, glutamine, streptomycin and penicillin at 37° C., 95% relative humidity and 5% CO2. Four ml of cell suspension (10^5 cells/ml) were added to culture tubes and the appropriate amount of drug was added (to yield 0.01, 0.1, 1 or 10 μg/ml final concentration) to the culture tubes. After 72 hours of incubation, the cell concentration in control and experimental cultures were determined with the aid of the Coulter counter model ZBf and the percent of growth inhibition calculated.

[5] = tested on: L1210; test: In vivo antitumor therapy against L1210; parameters: species or system BDF1 mice; settings: for Long-term Survivors: alive 30 days after tumor inoculation
[6] = tested on: L1210/cisplatin; test: In vivo antitumor efficacy, L1210/cisplatin; parameters: species or system BDF1 mice; settings: for % T/C (mean survival time treated/control × 100): mice inoculated with L1210 cells (Table 6); for % T/C: days 1, 5, 9
Experimental: as §1
^a BDF1 mice were inoculated i.p. with 10^5 L1210 cells. Mic
received 3 i.p. drug injections days 1, 5, and 9.
as §2, §3

[7] = LD50 of DACH-Pt(II) compounds, intraperitoneal; assay type: in vivo; settings: i.p., CD1 albino mice
[8] = optimal dose 12.5 mg/kg i.p., days 1-9
[9] = optimal dose 12.5 mg/kg i.p., days 1,5,9
[10] = optimal dose 50 mg/kg i.p., day 1
[11] = optimal dose 25 mg/kg i.p., days 1,5,9
[12] = optimal dose 6.25 mg/kg i.p., days 1,5,9

1,1-Cyclobutanedicarboxylato(cis-DACH)Pt(II).11/2H2 O [Compound 13]
long term survivor ([1]; B16 inoculation (Table 6)): 1/5 | % T/C (mean survival time treated/control x 100) [1]: 200% | % T/C ([1]; opt. dose 100 mg/kg i.p.): 200% | LTS ([1]; opt. dose 100 mg/kg i.p., alive 60 days after inoculation): 1/5 | Survivors on d.5 [2]: 5/5 | Body Weight d.5 (% of day 0) [2]: 82 % of day 0 | WBC d.5 [2]: 1.13 ± 0.28 | long term survivor [3]: 5/5 | % T/C (treated/control mean survival time) [3]: 400% | % T/C ([3]; opt. dose 100 mg/kg i.p.): 400% | LTS ([3]; opt. dose 100 mg/kg i.p.): 5/5 | ID50 [4]: 3.30 µg/mL | Long-term Survivors ([5]; 12.5 mg/kg i.p., days 1-9): 1/6 | % T/C [5, 8]: 253% | % T/C (mean survival time treated/control × 100) [6]: 150% | % T/C ([6]; opt. dose 150 mg/kg i.p.): 150% | LD50 [7]: 215 mg/kg

1,1-Cyclobutanedicarboxylato(trans-R,R-DACH)Pt(II).1 1/2H2 O [Compound 11]
% T/C (mean survival time treated/control x 100) [1]: 104% | % T/C ([1]; opt. dose 50 mg/kg i.p.): 104% | Survivors on d.5 [2]: 5/5 | Body Weight d.5 (% of day 0) [2]: 121 % of day 0 | WBC d.5 [2]: 3.44 ± 1.55 | long term survivor [3]: one | % T/C (treated/control mean survival time) [3]: 220% | % T/C ([3]; opt. dose 50 mg/kg i.p.): 220% | LTS ([3]; opt. dose 50 mg/kg i.p.): 1/5 | Long-term Survivors ([5]; 6.25 mg/kg i.p., days 1-9): 3/6 | % T/C ([5]; optimal dose 6.25 mg/kg i.p., days 1-9): 398% | % T/C [5, 9]: 140% | % T/C [5, 10]: 147% | % T/C (mean survival time treated/control × 100) [6]: 118% | % T/C ([6]; opt. dose 150 mg/kg i.p.): 118% | LD50 [7]: 280 mg/kg

CCN(CC(=O)[O-])CC(=O)[O-].N[C@@H]1CCCC[C@H]1N.O.[Pt+2] (stereo in doubt) [Compound 1, N-ethyliminodiacetato(trans-R,R-DACH)Pt(II).H2 O]
Survivors on d.5 [2]: 5/5 | Body Weight d.5 (% of day 0) [2]: 105 % of day 0 | WBC d.5 [2]: 2.3 ± 0.93 | ID50 [4]: 0.73 µg/mL | Long-term Survivors ([5]; 3.15 mg/kg i.p., days 1-9): 4/6 | Long-term Survivors ([5]; 12.5 mg/kg i.p., days 1,5,9): 1/6 | % T/C ([5]; optimal dose 3.15 mg/kg i.p., days 1-9): 434% | % T/C [5, 9]: 324% | % T/C [5, 10]: 125% | % T/C (mean survival time treated/control × 100) [6]: 324% | % T/C ([6]; opt. dose 12.5 mg/kg i.p.): 324% | LD50 [7]: 58 mg/kg

N[C@@H]1CCCC[C@H]1N.O.O.O=C([O-])CN(O)CC(=O)[O-].[Pt+2] (stereo in doubt) [Compound 9, N-hydroxyliminodiacetato(trans-R,R-DACH)Pt(II).2H2 O]
ID50 [4]: 0.76 µg/mL | % T/C [5, 11]: 265% | % T/C [5, 10]: 156%

N[C@H]1CCCC[C@@H]1N.O.O.O=C([O-])C1(C(=O)[O-])CCC1.[Pt+2] (stereo in doubt) [Compound 12, 1,1-Cyclobutanedicarboxylato(trans-S,S-DACH)Pt(II).2H2 O]
% T/C (mean survival time treated/control x 100) [1]: 104% | % T/C ([1]; opt. dose 50 mg/kg i.p.): 104% | Survivors on d.5 [2]: 3/5 | Body Weight d.5 (% of day 0) [2]: 114 % of day 0 | WBC d.5 [2]: 3.42 ± 1.93 | % T/C (treated/control mean survival time) [3]: 231% | % T/C ([3]; opt. dose 50 mg/kg i.p.): 231% | LTS ([3]; opt. dose 50 mg/kg i.p.): 1/5 | ID50 [4]: 1.65 µg/mL | % T/C [5, 8]: 120% | % T/C (mean survival time treated/control × 100) [6]: 176% | % T/C ([6]; opt. dose 100 mg/kg i.p.): 176% | LD50 [7]: 230 mg/kg

N[C@@H]1CCCC[C@H]1N.O.O=C([O-])C1(C(=O)[O-])CC1.[Pt+2] (stereo in doubt) [Compound 14, 1,l-Cyclopropanedicarboxylato(trans-R,R-DACH)Pt(II).H2 O]
ID50 [4]: 0.66 µg/mL

CN(C)CC(=O)[O-].CN(C)CC(=O)[O-].N[C@@H]1CCCC[C@H]1N.O.O.[Pt+2] (stereo in doubt) [Compound 16, Cis-bis-N,N-dimethylglycinato(trans-R,R-DACH)Pt(II).2H2 O]
ID50 [4]: 3.5 µg/mL

N.N.O=C([O-])C1(C(=O)[O-])CCC1.[Pt+2] [Carboplatin, reference compound]
Survivors on d.5 [2]: 5/5 | Body Weight d.5 (% of day 0) [2]: 95 % of day 0 | % T/C ([3]; opt. dose 40 mg/kg i.p.): 150% | % T/C ([6]; opt. dose 90 mg/kg i.p.): 121% | LD50 [7]: 105 mg/kg

CCN1CC(=O)[O][Pt]2([NH]C3CCCCC3[NH]2)[O]C(=O)C1 (stereo not drawn) [Cis-EIDA]
Survivors on d.5 [2]: 3/5 | Body Weight d.5 (% of day 0) [2]: 77 % of day 0 | WBC d.5 [2]: 3.25 ± 1.01 | % T/C ([6]; opt. dose 75 mg/kg i.p.): 262% | LD50 [7]: 140 mg/kg

N.N.[Cl][Pt][Cl] [Cisplatin, reference compound]
% T/C ([1]; opt. dose 3 mg/kg i.p.): 139% | % T/C ([3]; opt. dose 3 mg/kg i.p.): 200% | % T/C ([6]; opt. dose 5 mg/kg i.p.): 94%

CCCN(CC(=O)[O-])CC(=O)[O-].N[C@@H]1CCCC[C@H]1N.O.O.[Pt+2] [Compound 2, N-propyliminodiacetato(trans-R,R-DACH)Pt(II).2H2 O]
ID50 [4]: 0.75 µg/mL | % T/C ([5]; optimal dose 56 mg/kg i.p., day 1): 129%

CCCCN(CC(=O)[O-])CC(=O)[O-].N[C@@H]1CCCC[C@H]1N.O.O.[Pt+2] [Compound 3, N-butyliminodiacetato(trans-R,R-DACH)Pt(II).2H2 O]
ID50 [4]: 0.74 µg/mL | Long-term Survivors ([5]; 12.5 mg/kg i.p., days 1,5,9): 2/6 | % T/C ([5]; optimal dose 12.5 mg/kg i.p., day 1): 147% | % T/C [5, 9]: 318%

CCCCCN(CC(=O)[O-])CC(=O)[O-].N[C@@H]1CCCC[C@H]1N.O.[Pt+2] [Compound 4, N-amyliminodiacetato(trans-R,R-DACH)Pt(II).H2 O]
ID50 [4]: 3.00 µg/mL | Long-term Survivors ([5]; 25 mg/kg i.p., days 1,5,9): 2/6 | % T/C [5, 11]: 227% | % T/C [5, 10]: 158%

CC(C)CCN(CC(=O)[O-])CC(=O)[O-].N[C@@H]1CCCC[C@H]1N.[Pt+2] [Compound 6, N-isoamyliminodiacetato(trans-R,R-DACH)Pt(II)]
% T/C [5, 9]: 150% | % T/C [5, 10]: 145%

CCC(C)N(CC(=O)[O-])CC(=O)[O-].N[C@@H]1CCCC[C@H]1N.O.O.[Pt+2] (stereo not drawn) [Compound 7, N-sec-butyliminodiacetato(trans-R,R-DACH)Pt(II).2H2 O]
ID50 [4]: 0.65 µg/mL | Long-term Survivors ([5]; 6.25 mg/kg i.p., days 1,5,9): 2/6 | % T/C [5, 12]: 282%

CC(C)(C)N(CC(=O)[O-])CC(=O)[O-].N[C@@H]1CCCC[C@H]1N.O.O.O.[Pt+2] [Compound 8, N-ter-butyliminodiacetato(trans-R,R-DACH)Pt(II).3H2 O]
Long-term Survivors ([5]; 6.25 mg/kg i.p., days 1,5,9): 1/6 | % T/C [5, 12]: 271%

CC(=CC(=O)[O-])C(=O)[O-].NC1CCCCC1N.O.[Pt+2] [Compound 10, Citraconato(trans-R,R-DACH)Pt(II).1H2 O]
ID50 [4]: 5.00 µg/mL | % T/C [5, 11]: 200%

CCN1CC(=O)[O][Pt]2([NH]C3CCCCC3[NH]2)[O]C(=O)C1 (stereo not shown) [S,S-EIDA]
Survivors on d.5 [2]: 5/5 | Body Weight d.5 (% of day 0) [2]: 100 % of day 0 | WBC d.5 [2]: 2.63 ± 0.96 | % T/C ([6]; opt. dose 25 mg/kg i.p.): 344% | LD50 [7]: 95 mg/kg

Cis-bis-galacturonato(trans-R,R-DACH)Pt(II).2H2 O [Compound 15]
ID50 [4]: 0.90 µg/mL | % T/C [5, 9]: 238%

N-isopropyliminodiacetato(trans-R,R-DACH)Pt(II).2H2 O [Compound 5]
ID50 [4]: 0.85 µg/mL | Long-term Survivors ([5]; 12.5 mg/kg i.p., days 1,5,9): 1/6 | % T/C [5, 9]: 324% | % T/C [5, 10]: 155%
